± gives the standard deviation of the averaged measurements.
Legend:
[1] = compound: COc1ccc(-c2cc3c(C)nc(N)nc3n([C@H]3CC[C@H](OCCO)CC3)c2=O)cn1; assay: surviving fraction relative to DMSO-only wells; higher = less growth inhibition; conditions: exposure time: 5 days
Procedure, shortened: (§1)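 Surviving fraction was calculated by normalising CellTiter-Glo luminescence to the median of DMSO-only wells. Tumour cell lines in log phase were seeded in 384-well plates at 250–500 cells per well, and 24 hours later were exposed continuously for five days to inhibitors at 0.5, 1, 5, 10, 50, 100, 500 and 1000 nM.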

BMN-673 = compound: Cn1ncnc1[C@H]1c2n[nH]c(=O)c3cc(F)cc(c23)N[C@@H]1c1ccc(F)cc1 [BMN-673]; assay: as above; conditions: exposure time: 5 days
Procedure, shortened: as §1

How did the surviving fraction ([1]; 0.5 nM) turn out when HELA CERVIX was run?
Its surviving fraction is 0.998 ± 0.04.

What about the surviving fraction ([1]; 1 nM) of the same test system?
The surviving fraction was 0.989 ± 0.088.

What about the surviving fraction ([1]; 5 nM) of the same test system?
The surviving fraction was 1.02 ± 0.042.

What about the surviving fraction ([1]; 10 nM) of the same test system?
The surviving fraction was 1.02 ± 0.035.

And the surviving fraction ([1]; 50 nM)?
The surviving fraction was 1.11 ± 0.039.

What about the surviving fraction ([1]; 100 nM) of the same test system?
Its surviving fraction is 1.06 ± 0.052.

And the surviving fraction ([1]; 500 nM)?
The surviving fraction was 0.4 ± 0.019.

And the surviving fraction ([1]; 1000 nM)?
The surviving fraction was 0.318 ± 0.017.

What about the surviving fraction (BMN-673; 0.5 nM) of the same test system?
The surviving fraction was 1 ± 0.045.

What about the surviving fraction (BMN-673; 1 nM) of the same test system?
The surviving fraction was 1 ± 0.058.

What about the surviving fraction (BMN-673; 5 nM) of the same test system?
Its surviving fraction is 1.07 ± 0.038.

What about the surviving fraction (BMN-673; 10 nM) of the same test system?
The surviving fraction was 1.031 ± 0.0089.

What about the surviving fraction (BMN-673; 50 nM) of the same test system?
The surviving fraction was 1.1 ± 0.11.

And the surviving fraction (BMN-673; 100 nM)?
The surviving fraction was 1.14 ± 0.11.

What about the surviving fraction (BMN-673; 500 nM) of the same test system?
Its surviving fraction is 0.736 ± 0.037.

What about the surviving fraction (BMN-673; 1000 nM) of the same test system?
The surviving fraction was 0.606 ± 0.035.

Which surviving fraction ([1]; 0.5 nM) does the source give for HOS BONE here?
Its surviving fraction is 0.992 ± 0.0078.

And the surviving fraction ([1]; 1 nM)?
The surviving fraction was 0.983 ± 0.019.

What about the surviving fraction ([1]; 5 nM) of the same test system?
Its surviving fraction is 0.986 ± 0.012.

What about the surviving fraction ([1]; 10 nM) of the same test system?
Its surviving fraction is 0.906 ± 0.014.

What about the surviving fraction ([1]; 50 nM) of the same test system?
The surviving fraction was 0.781 ± 0.021.

What about the surviving fraction ([1]; 100 nM) of the same test system?
The surviving fraction was 0.618 ± 0.016.

What about the surviving fraction ([1]; 500 nM) of the same test system?
Its surviving fraction is 0.231 ± 0.012.

What about the surviving fraction ([1]; 1000 nM) of the same test system?
Its surviving fraction is 0.178 ± 0.0092.

What about the surviving fraction (BMN-673; 0.5 nM) of the same test system?
Its surviving fraction is 1.04 ± 0.037.

And the surviving fraction (BMN-673; 1 nM)?
Its surviving fraction is 1 ± 0.018.

And the surviving fraction (BMN-673; 5 nM)?
Its surviving fraction is 0.976 ± 0.018.

And the surviving fraction (BMN-673; 10 nM)?
The surviving fraction was 0.974 ± 0.036.

And the surviving fraction (BMN-673; 50 nM)?
Its surviving fraction is 0.993 ± 0.04.

What about the surviving fraction (BMN-673; 100 nM) of the same test system?
Its surviving fraction is 0.96 ± 0.036.

What about the surviving fraction (BMN-673; 500 nM) of the same test system?
Its surviving fraction is 0.596 ± 0.022.

And the surviving fraction (BMN-673; 1000 nM)?
The surviving fraction was 0.282 ± 0.026.

How did the surviving fraction ([1]; 0.5 nM) turn out when HOSMNG BONE was run?
The surviving fraction was 1.03 ± 0.058.

What about the surviving fraction ([1]; 1 nM) of the same test system?
The surviving fraction was 1.01 ± 0.087.

And the surviving fraction ([1]; 5 nM)?
The surviving fraction was 1.04 ± 0.037.

What about the surviving fraction ([1]; 10 nM) of the same test system?
Its surviving fraction is 0.947 ± 0.034.

And the surviving fraction ([1]; 50 nM)?
Its surviving fraction is 0.944 ± 0.082.

And the surviving fraction ([1]; 100 nM)?
The surviving fraction was 0.81 ± 0.033.

What about the surviving fraction ([1]; 500 nM) of the same test system?
Its surviving fraction is 0.348 ± 0.0079.

And the surviving fraction ([1]; 1000 nM)?
The surviving fraction was 0.186 ± 0.0096.

What about the surviving fraction (BMN-673; 0.5 nM) of the same test system?
The surviving fraction was 1.07 ± 0.056.

And the surviving fraction (BMN-673; 1 nM)?
Its surviving fraction is 1.04 ± 0.029.

What about the surviving fraction (BMN-673; 5 nM) of the same test system?
Its surviving fraction is 0.968 ± 0.017.

And the surviving fraction (BMN-673; 10 nM)?
Its surviving fraction is 1.01 ± 0.019.

And the surviving fraction (BMN-673; 50 nM)?
The surviving fraction was 1.03 ± 0.031.

What about the surviving fraction (BMN-673; 100 nM) of the same test system?
Its surviving fraction is 1.05 ± 0.046.

And the surviving fraction (BMN-673; 500 nM)?
Its surviving fraction is 0.849 ± 0.047.

And the surviving fraction (BMN-673; 1000 nM)?
Its surviving fraction is 0.645 ± 0.023.

With HSSYII SYNOVIAL as the test system, how does the surviving fraction ([1]; 0.5 nM) read?
Its surviving fraction is 0.926 ± 0.034.

And the surviving fraction ([1]; 1 nM)?
The surviving fraction was 0.941 ± 0.07.

What about the surviving fraction ([1]; 5 nM) of the same test system?
Its surviving fraction is 0.821 ± 0.045.

What about the surviving fraction ([1]; 10 nM) of the same test system?
The surviving fraction was 0.789 ± 0.036.

What about the surviving fraction ([1]; 50 nM) of the same test system?
The surviving fraction was 0.502 ± 0.006.

And the surviving fraction ([1]; 100 nM)?
Its surviving fraction is 0.329 ± 0.014.

And the surviving fraction ([1]; 500 nM)?
The surviving fraction was 0.12 ± 0.0097.

And the surviving fraction ([1]; 1000 nM)?
The surviving fraction was 0.093 ± 0.0052.

What about the surviving fraction (BMN-673; 0.5 nM) of the same test system?
The surviving fraction was 0.867 ± 0.022.

What about the surviving fraction (BMN-673; 1 nM) of the same test system?
Its surviving fraction is 0.819 ± 0.015.

What about the surviving fraction (BMN-673; 5 nM) of the same test system?
The surviving fraction was 0.506 ± 0.026.

What about the surviving fraction (BMN-673; 10 nM) of the same test system?
Its surviving fraction is 0.34 ± 0.017.

And the surviving fraction (BMN-673; 50 nM)?
The surviving fraction was 0.19 ± 0.0066.

And the surviving fraction (BMN-673; 100 nM)?
Its surviving fraction is 0.132 ± 0.011.

What about the surviving fraction (BMN-673; 500 nM) of the same test system?
Its surviving fraction is 0.0702 ± 0.0064.

And the surviving fraction (BMN-673; 1000 nM)?
The surviving fraction was 0.06017 ± 0.00029.

HT1080 SOFT TISSUE was tested. Which surviving fraction ([1]; 0.5 nM) did it give?
The surviving fraction was 1.02 ± 0.038.

And the surviving fraction ([1]; 1 nM)?
The surviving fraction was 0.974 ± 0.029.

And the surviving fraction ([1]; 5 nM)?
Its surviving fraction is 1.001 ± 0.0067.

And the surviving fraction ([1]; 10 nM)?
The surviving fraction was 0.955 ± 0.1.

And the surviving fraction ([1]; 50 nM)?
The surviving fraction was 0.829 ± 0.012.

And the surviving fraction ([1]; 100 nM)?
Its surviving fraction is 0.661 ± 0.031.

What about the surviving fraction ([1]; 500 nM) of the same test system?
The surviving fraction was 0.255 ± 0.015.

And the surviving fraction ([1]; 1000 nM)?
The surviving fraction was 0.161 ± 0.0072.

What about the surviving fraction (BMN-673; 0.5 nM) of the same test system?
Its surviving fraction is 1 ± 0.037.

What about the surviving fraction (BMN-673; 1 nM) of the same test system?
Its surviving fraction is 0.967 ± 0.042.

What about the surviving fraction (BMN-673; 5 nM) of the same test system?
The surviving fraction was 0.73 ± 0.024.

And the surviving fraction (BMN-673; 10 nM)?
Its surviving fraction is 0.524 ± 0.02.

What about the surviving fraction (BMN-673; 50 nM) of the same test system?
Its surviving fraction is 0.375 ± 0.018.

And the surviving fraction (BMN-673; 100 nM)?
The surviving fraction was 0.312 ± 0.0085.

And the surviving fraction (BMN-673; 500 nM)?
Its surviving fraction is 0.204 ± 0.0027.

And the surviving fraction (BMN-673; 1000 nM)?
The surviving fraction was 0.187 ± 0.014.

Which results are given for HU09 BONE?
surviving fraction ([1]; 0.5 nM): 0.936 ± 0.058; surviving fraction ([1]; 1 nM): 0.941 ± 0.057; surviving fraction ([1]; 5 nM): 0.779 ± 0.044; surviving fraction ([1]; 10 nM): 0.793 ± 0.078; surviving fraction ([1]; 50 nM): 0.346 ± 0.042; surviving fraction ([1]; 100 nM): 0.168 ± 0.015; surviving fraction ([1]; 500 nM): 0.0383 ± 0.0015; surviving fraction ([1]; 1000 nM): 0.0237 ± 0.0015; surviving fraction (BMN-673; 0.5 nM): 0.97 ± 0.066; surviving fraction (BMN-673; 1 nM): 0.978 ± 0.056; surviving fraction (BMN-673; 5 nM): 0.898 ± 0.067; surviving fraction (BMN-673; 10 nM): 0.812 ± 0.11; surviving fraction (BMN-673; 50 nM): 0.486 ± 0.046; surviving fraction (BMN-673; 100 nM): 0.437 ± 0.038; surviving fraction (BMN-673; 500 nM): 0.104 ± 0.018; surviving fraction (BMN-673; 1000 nM): 0.058 ± 0.008

Which results are given for HUO3N1 BONE?
surviving fraction ([1]; 0.5 nM): 0.986 ± 0.036; surviving fraction ([1]; 1 nM): 0.981 ± 0.039; surviving fraction ([1]; 5 nM): 0.924 ± 0.061; surviving fraction ([1]; 10 nM): 0.855 ± 0.028; surviving fraction ([1]; 50 nM): 0.614 ± 0.013; surviving fraction ([1]; 100 nM): 0.494 ± 0.026; surviving fraction ([1]; 500 nM): 0.242 ± 0.012; surviving fraction ([1]; 1000 nM): 0.188 ± 0.003; surviving fraction (BMN-673; 0.5 nM): 0.991 ± 0.023; surviving fraction (BMN-673; 1 nM): 0.998 ± 0.043; surviving fraction (BMN-673; 5 nM): 0.945 ± 0.038; surviving fraction (BMN-673; 10 nM): 0.9 ± 0.014; surviving fraction (BMN-673; 50 nM): 0.8017 ± 0.0063; surviving fraction (BMN-673; 100 nM): 0.658 ± 0.015; surviving fraction (BMN-673; 500 nM): 0.448 ± 0.03; surviving fraction (BMN-673; 1000 nM): 0.357 ± 0.021

How did the surviving fraction ([1]; 0.5 nM) turn out when JIMT1 BREAST was run?
The surviving fraction was 0.983 ± 0.03.

What about the surviving fraction ([1]; 1 nM) of the same test system?
Its surviving fraction is 0.961 ± 0.023.

And the surviving fraction ([1]; 5 nM)?
The surviving fraction was 0.968 ± 0.011.

What about the surviving fraction ([1]; 10 nM) of the same test system?
The surviving fraction was 0.937 ± 0.024.

What about the surviving fraction ([1]; 50 nM) of the same test system?
The surviving fraction was 0.857 ± 0.021.

What about the surviving fraction ([1]; 100 nM) of the same test system?
Its surviving fraction is 0.606 ± 0.022.

And the surviving fraction ([1]; 500 nM)?
Its surviving fraction is 0.19 ± 0.0061.

What about the surviving fraction ([1]; 1000 nM) of the same test system?
Its surviving fraction is 0.114 ± 0.013.

What about the surviving fraction (BMN-673; 0.5 nM) of the same test system?
The surviving fraction was 0.928 ± 0.041.

What about the surviving fraction (BMN-673; 1 nM) of the same test system?
Its surviving fraction is 0.913 ± 0.025.

And the surviving fraction (BMN-673; 5 nM)?
The surviving fraction was 0.848 ± 0.011.

And the surviving fraction (BMN-673; 10 nM)?
The surviving fraction was 0.822 ± 0.011.

What about the surviving fraction (BMN-673; 50 nM) of the same test system?
Its surviving fraction is 0.71 ± 0.035.

What about the surviving fraction (BMN-673; 100 nM) of the same test system?
Its surviving fraction is 0.617 ± 0.063.

And the surviving fraction (BMN-673; 500 nM)?
The surviving fraction was 0.474 ± 0.027.

What about the surviving fraction (BMN-673; 1000 nM) of the same test system?
The surviving fraction was 0.395 ± 0.033.

Source: the supplement of paper PMC6045584
